Measurements reported in paper PMC2900185 (Biochemistry, 2010).

Key:
[1] = tested on: Ste2p containing the substitution R58A; assay: Binding of α-factor to Ste2p with substitution R58A; set-up: species or system Saccharomyces cerevisiae
[2] = target: Ste2p (R58A) (S. cerevisiae) (UniProt D6VTK4)
Chain of UniProt D6VTK4 (D6VTK4 whole entry R58A): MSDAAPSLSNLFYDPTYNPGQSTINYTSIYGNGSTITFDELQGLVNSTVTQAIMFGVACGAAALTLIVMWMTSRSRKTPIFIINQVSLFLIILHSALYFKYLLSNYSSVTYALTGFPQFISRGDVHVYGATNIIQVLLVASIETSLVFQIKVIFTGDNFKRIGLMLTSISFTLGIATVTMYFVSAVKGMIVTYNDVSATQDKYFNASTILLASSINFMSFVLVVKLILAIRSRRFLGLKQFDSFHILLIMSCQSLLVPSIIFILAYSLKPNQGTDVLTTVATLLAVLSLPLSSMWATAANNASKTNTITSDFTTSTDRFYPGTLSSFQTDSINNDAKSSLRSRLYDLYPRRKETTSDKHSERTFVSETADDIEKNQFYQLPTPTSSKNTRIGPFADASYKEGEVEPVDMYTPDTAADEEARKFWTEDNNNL

| fold higher Kd than wild-type Ste2p [2] | Substance | fold lower affinity for α-factor relative to wild-type Ste2p [1] |
| --- | --- | --- |
|  | WHWLQLKPGQPMY [α-factor] | ~10 fold |
| 10 fold | α-factor (as used with the ste2 R58 mutants) (peptide) |  |
